The target of assay [1] is T1, PLA2G16 (Homo sapiens, UniProt P53816).
T1 construct: Hexa-His (N); made in house; host or cells: E. coli BL21(DE3)
T1 sequence (P53816 1-162): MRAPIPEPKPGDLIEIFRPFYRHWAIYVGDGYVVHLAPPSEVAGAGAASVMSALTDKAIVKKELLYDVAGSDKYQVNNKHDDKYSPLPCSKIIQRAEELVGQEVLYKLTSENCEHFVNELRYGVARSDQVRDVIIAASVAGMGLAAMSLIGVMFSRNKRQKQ
The assay is described as follows: Enzyme activity assay for PLA2G16 (Red/Green BODIPY PC-A2 fluorescence). Type of assay: biochemical. As to conditions: His-tagged PLA2G16, 4 min pre-incubation, compound 2 nM to 50 μM; first symbol in parentheses. An excerpt: Purification and Enzyme Activity Assay for PLA2G16
A cDNA for PLA2G16 (NM_007069) was custom-synthesized by Genscript (Piscataway, USA) and inserted into a pET-based bacterial expression vector [Moffatt, B. A. and Studier, F. W. (1986) J. Mol. Biol. 189, 113-130; Rosenberg, A. H., Lade, B. N., Chui, D., Lin, S., Dunn, J. J., and Studier, F. W. (1987) Gene 56, 125-135], enabling the expression of N-terminally Hexa-His-tagged PLA2G16. E. coli BL21(DE3) (Agilent) were transformed with pET-His-PLA2G16 according to the manufacturer's instructions and plated on Carbenicillin-containing agar plates (final concentration: 100 μg/mL). A single clone was inoculated in 100 mL LB medium supplemented with 100 μg/mL Carbenicillin and the inoculated culture was grown at 37° C. overnight in a rotary shaker. On the next day, the bacterial culture was diluted in LB medium supplemented with 100 μg/mL Carbenicillin (30 mL overnight culture in 800 mL total culture volume). Bacteria were grown at 37° C. until the OD600 reached 0.6. Gene expression was induced by addition of 1 mM isopropyl-β-D-thiogalactopyranosid (IPTG) for 2 h at 18° C. Subsequently, bacteria were harvested by centrifugation (15 min; 10,000×g; 4° C.) and frozen at −80° C. The bacterial pellet was resuspended in Buffer A (50 mM Tris/HCl pH 7.5, 500 mM NaCl, 5% glycerol, 5 mM β-Mercaptoethanol and 1 mM PMSF) and lysed by addition of 1 mg/mL lysozyme (Sigma Aldrich) and 100 μg/mL DNasel-(Roche). The sample was incubated at 30° C. for 30 min to allow lysis to occur. Then, the lysate was cleared by centrifugation (15,000×g, 15 min, 4° C.) and incubated with 1.5 mL Ni-NTA agarose suspension (Qiagen) for 60 min at 4° C. The Ni-NTA agarose was washed with 10 mL Buffer A. Bound protein was eluted by applying a manual gradient of Buffer A supplemented with increasing concentrations of imidazole (Sigma Aldrich; 25/50/75/100/250 mM). Purified fractions were analyzed by SDS-PAGE followed by Coomassie staining to assess the purity.
Activity of the protein was assessed as follows:
Red/Green BODIPY® PC-A2 (Invitrogen, 1 mM in DMSO) was mixed with equal volumes of 1,2-Dioleoyl-sn-glycero-3-phosphocholine (DOPC; Sigma Aldrich, 10 mM in Ethanol) and 1,2-Dioleoyl-sn-glycero-3-phospho-rac-(1-glycerol) (DOPG; Sigma Aldrich, 10 mM in Ethanol) and 0.5 volumes of Cholesterol (CHOL; Sigma Aldrich, 10 mM in Ethanol) and vortexed for 5 s. The mixture (Red/Green BODIPY® PC-A2/DOPC/DOPG/CHOL) was diluted 1:91.4 in activity assay buffer (50 mM Tris/HCl pH 8.5, 100 mM NaCl) using a small-orifice pipette tip under constant vortexing. In the following, this preparation will be referred to as the “substrate solution”.
In order to evaluate their inhibitory potential, compounds were dissolved at 10 mM concentration in DMSO and directly spotted into assay plates (Corning, Cat. No. 3576) using acoustic liquid transfer (Labcyte Echo 525). Each compound was spotted at increasing concentrations, ranging from 2 nM to 50 μM (concentration in the final assay volume). 50 μl of PLA2G16 enzyme solution (diluted in activity buffer, supplemented with 5 mM L-Glutathione; Sigma Aldrich) was pre-incubated with compounds for 4 min., followed by addition of 50 μl of substrate solution. Fluorescence was recorded immediately after substrate addition for a total time of 10 min. using a SpectraMax M5 multimode reader (Excitation wavelength: 480 nm, emission wavelength: 530 nm). The relative increase of fluorescence over time is referred to as the enzyme activity. Half-maximal inhibitory concentrations (IC50) were derived by non-linear regression analysis using the drc package in R (R Development. Core Team, 2005).

Assay [2] has as its system picornaviruses (CVB1, HRV-A2, HRV-A23, EV-68). The assay is described as follows: Anti-picornavirus cytopathic effect (CPE) reduction assay on HeLa H1 cells. Type of assay: cell-based. As to conditions: 48 h, category from averaging EC50 values of four picornaviruses (CVB1, HRV-A2, HRV-A23, EV68), second symbol in parentheses. As for the experimental part:
Anti-Picornavirus Assay in Mammalian Cell Culture
The antiviral activity of selected compounds was tested using a cytopathic effect (CPE) reduction assay on HeLa H1 cells (ATCC CRL-1958). Briefly, cells were seeded in 96-well dishes (2×10^4 cells/well) in DMEM medium (Life technologies) supplemented with 10% FBS and PenStrep solution (100 U/mL Penicillin and 100 μg/mL streptomycin) and incubated at 37° C., 5% CO2 overnight. The next day, cells were pre-treated with serial dilutions of the compound in DMEM medium supplemented with 2% FBS and PenStrep for 2 h at 37° C., 5% CO2. Next, cells were infected with virus (CVB1, HRV-A2, HRV-A23, EV-68) at an multiplicity of infection (MOI) which results in a complete virus-induced CPE within 2 days in control wells (infected and vehicle-treated). After 48 h, supernatants were aspirated and 50 μl/well of CellTiterBlue reagent (Promega) diluted 1:5 in DMEM+2% FBS, was added to the cells. Plates were returned to the incubator and allowed to develop for 1.5 h. After that, plates were equilibrated to RT and subsequently, fluorescence was recorded (Excitation wavelength: 560 nm; emission wavelength: 590 nm) using a SpectraMax M5 multimode plate reader. Viability of cells was calculated according to the formula: V=(RFUCpd−RFUVeh/(RFUM−RFUVeh), where RFUCpd refers to infected and compound-treated cells, RFUVeh to infected and vehicle-treated cells and RFUM to uninfected and vehicle treated cells. Half-maximal effective concentrations (EC50) were calculated by non-linear regression analysis using the drc package in R (R Development. Core Team, 2005). EC50 categories as presented in Table 2 were calculated by averaging the EC50 values from four picornaviruses (CVB1, HRV-A2, HRV-A23, EV68).
On the technique in general: Protection from cytopathic effect is a common read-out in antiviral testing.

SMILES strings stand for the structures. A value given as a limit tells only on which side of the number the result lay.

For orientation: IC50 means the concentration needed to halve the response being measured. By EC50 is commonly meant the concentration giving half of the maximal effect.

On to `CC(F)(F)CNC(=O)C(=O)[C@H]1CN(c2cncnc2)C(=O)[C@@H]1Cc1ccccc1` (racemic) [FP-56, Rac-2-[(3R,4R)-4-benzyl-5-oxo-1-(pyrimidin-5-yl)pyrrolidin-3-yl]-N-(2,2-difluoropropyl)-2-oxoacetamide], for which, in assay [1], the IC50 is less than 1000 nM. In addition, in assay [2], the EC50 was less than 1000 nM.
As to `Cc1ncncc1N1C[C@H](C(=O)C(=O)NCC(C)(F)F)[C@@H](Cc2ccccc2)C1=O` (racemic) [FP-68, Rac-2-[(3R,4R)-4-benzyl-1-(4-methylpyrimidin-5-yl)-5-oxopyrrolidin-3-yl]-N-(2,2-difluoropropyl)-2-oxoacetamide], the IC50 in assay [1] is less than 1000 nM. Further, the EC50 in assay [2] fell in the range of 1000 to 10000 nM.
The like results for `O=C(NOC1CCCCC1)C(=O)[C@H]1CNC(=O)[C@@H]1Cc1ccccc1` (racemic) [FP-9, Rac-2-[(3R,4R)-4-benzyl-5-oxopyrrolidin-3-yl]-N-(cyclohexyloxy)-2-oxoacetamide] were, in that order, less than 1000 nM and 1000 to 10000 nM.
Regarding `O=C(NC1CC1)C(=O)[C@H]1CN(c2cccc(=O)[nH]2)C(=O)[C@@H]1Cc1ccccc1` (racemic) [FP-70, Rac-2-[(3R,4R)-4-benzyl-5-oxo-1-(6-oxo-1,6-dihydropyridin-2-yl)pyrrolidin-3-yl]-N-cyclopropyl-2-oxoacetamide], in assay [1], the IC50 was less than 1000 nM. The EC50 in assay [2] was less than 1000 nM.
As for `Cn1cnc(CN2C[C@H](C(=O)C(=O)NC3CC3)[C@@H](Cc3ccc(F)cc3)C2=O)n1` (racemic) [FP-51, Rac-N-cyclopropyl-2-[(3R,4R)-4-[(4-fluorophenyl)methyl]-1-[(1-methyl-1H-1,2,4-triazol-3-yl)methyl]-5-oxopyrrolidin-3-yl]-2-oxoacetamide], the IC50 in assay [1] was less than 1000 nM. Also, the EC50 in assay [2] is 1000 to 10000 nM.
The like results for `CC(C)ONC(=O)C(=O)[C@H]1CNC(=O)[C@@H]1Cc1ccc(F)cc1` (racemic) [FP-77, Rac-2-[(3R,4R)-4-[(4-fluorophenyl)methyl]-5-oxopyrrolidin-3-yl]-2-oxo-N-(propan-2-yloxy)acetamide] were, in that order, less than 1000 nM and 1000 to 10000 nM.
`Cn1ncnc1CN1C[C@@H](C(=O)C(=O)NC2CC2)[C@H](Cc2ccccc2)C1=O` (single isomer, unassigned) [FP-97]: the IC50 in assay [1] was in the range of 1000 to 10000 nM. The concentration for a half-maximal effect (EC50) in assay [2] is more than 10000 nM.
For the compound `O=C(NC1CC1)C(=O)[C@H]1CN(Cc2ccncn2)C(=O)[C@@H]1Cc1ccccc1` (racemic) [FP-37, Rac-2-[(3R,4R)-4-benzyl-5-oxo-1-[(pyrimidin-4-yl)methyl]pyrrolidin-3-yl]-N-cyclopropyl-2-oxoacetamide], in assay [1], the 50% inhibitory concentration (IC50) is less than 1000 nM. For the same compound, the EC50 in assay [2] was in the range of 1000 to 10000 nM.
Consider `O=C(NC1CC1)C(=O)[C@H]1CN(c2cncnc2)C(=O)[C@@H]1Cc1ccccc1` (single isomer, unassigned) [FP-89], for which the IC50 in assay [1] is less than 1000 nM. Moreover, the EC50 in assay [2] was less than 1000 nM.
For `Cc1ncncc1N1C[C@H](C(=O)C(=O)NC2CC2)[C@@H](Cc2ccccc2)C1=O` (racemic) [FP-67, Rac-2-[(3R,4R)-4-benzyl-1-(4-methylpyrimidin-5-yl)-5-oxopyrrolidin-3-yl]-N-cyclopropyl-2-oxoacetamide], in assay [1], the IC50 is less than 1000 nM. The EC50 in assay [2] lay within 1000 to 10000 nM.
Take `O=C(NCC(F)F)C(=O)[C@H]1CNC(=O)[C@@H]1Cc1ccccc1` (single isomer, unassigned) [FP-83]: the IC50 in assay [1] was less than 1000 nM. For the same compound, the EC50 in assay [2] is less than 1000 nM.
As to `CC(C)NC(=O)C(=O)[C@H]1CNC(=O)[C@@H]1c1ccc(F)cc1` (racemic) [FP-27, Rac-2-[(3R,4S)-4-(4-fluorophenyl)-5-oxopyrrolidin-3-yl]-2-oxo-N-(propan-2-yl)acetamide], the IC50 in assay [1] is less than 1000 nM. Besides, the EC50 in assay [2] lay within 1000 to 10000 nM.
Consider `Cn1ncnc1CN1C[C@H](C(=O)C(=O)NC2CC2)[C@@H](Cc2ccccc2)C1=O` (single isomer, unassigned) [FP-98], for which, in assay [1], the 50% inhibitory concentration (IC50) was less than 1000 nM. Besides, in assay [2], the EC50 lay in the range of 1000 to 10000 nM.
For the compound `N#CCCNC(=O)C(=O)[C@H]1CNC(=O)[C@@H]1Cc1ccccc1` (racemic) [FP-6, Rac-2-[(3R,4R)-4-benzyl-5-oxopyrrolidin-3-yl]-N-(2-cyanoethyl)-2-oxoacetamide], the IC50 in assay [1] is less than 1000 nM. The EC50 in assay [2] was 1000 to 10000 nM.
With `CC(F)(F)CNC(=O)C(=O)[C@H]1CNC(=O)[C@@H]1c1ccccc1` (racemic) [FP-11, Rac-N-(2,2-difluoropropyl)-2-oxo-2-[(3R,4S)-5-oxo-4-phenylpyrrolidin-3-yl]acetamide], the IC50 in assay [1] is less than 1000 nM. Further, the EC50 in assay [2] was in the range of 1000 to 10000 nM.
The like results for `CCNC(=O)C(=O)[C@H]1CNC(=O)[C@@H]1c1ccccc1` (racemic) [FP-15, Rac-N-ethyl-2-oxo-2-[(3R,4S)-5-oxo-4-phenylpyrrolidin-3-yl]acetamide] were, in that order, less than 1000 nM and 1000 to 10000 nM.
Consider `O=C(NC1CC1)C(=O)[C@H]1CN(c2cncnc2)C(=O)[C@@H]1c1ccccc1` (racemic) [FP-63, Rac-N-cyclopropyl-2-oxo-2-[(3R,4S)-5-oxo-4-phenyl-1-(pyrimidin-5-yl)pyrrolidin-3-yl]acetamide], for which the IC50 in assay [1] is less than 1000 nM. Further, in assay [2], the EC50 was in the range of 1000 to 10000 nM.
The like results for `CC(C)CNC(=O)C(=O)[C@H]1CN(CC(N)=O)C(=O)[C@@H]1Cc1ccccc1` (racemic) [FP-40, Rac-2-[(3R,4R)-4-benzyl-1-(carbamoylmethyl)-5-oxopyrrolidin-3-yl]-N-(2-methylpropyl)-2-oxoacetamide] were, in that order, less than 1000 nM and less than 1000 nM.
Turning to `CC1(NC(=O)C(=O)[C@H]2CNC(=O)[C@@H]2c2ccccc2)CC1` (racemic) [FP-20, Rac-N-(1-methylcyclopropyl)-2-oxo-2-[(3R,4S)-5-oxo-4-phenylpyrrolidin-3-yl]acetamide], the concentration for half-maximal inhibition (IC50) in assay [1] is less than 1000 nM. The EC50 in assay [2] was 1000 to 10000 nM.
